Assay results from the supplement of paper PMC10307832.

Tests used:
Test in all cases: relative viability (nuclei count vs DMSO), 5 days (fraction); higher = more cells survive
[1] = compound: CCn1c(-c2nonc2N)nc2cnc(Oc3cccc(NC(=O)c4ccc(OCCN5CCOCC5)cc4)c3)cc21 + C[C@@H](Oc1cc(-c2cnn(C3CCNCC3)c2)cnc1N)c1c(Cl)ccc(F)c1Cl [Crizotinib] (partner 1 µM)
Summary of the method: (§1)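 After 5 days of treatment, lung cancer cells in 1536-well plates were fixed and stained in a single step (final 0.05% Triton X-100, 1% formaldehyde, 1 ug/ml Hoechst) and their nuclei counted on 4× images. Treatment had been applied by pin tool the day after seeding as one drug alone or as a fixed anchor-drug dose with five library-drug doses (not always all listed) in √10 steps. Relative viability is the nuclei count of treated wells divided by that of vehicle wells, and values are medians of duplicate plates.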

[2] = compound: CCC1=CN=CN=C1N2CCN(CC2)CC3=NC4=C(N3)C=C(C=C4)C(F)(F)F + Cc1nc(NC(=O)N2CCC[C@H]2C(N)=O)sc1-c1ccnc(C(C)(C)C(F)(F)F)c1 [Alpelisib] (partner 2 µM)
Summary of the method: as §1

[3] = compound: CCn1c(-c2nonc2N)nc2cnc(Oc3cccc(NC(=O)c4ccc(OCCN5CCOCC5)cc4)c3)cc21 + Cc1nc(NC(=O)N2CCC[C@H]2C(N)=O)sc1-c1ccnc(C(C)(C)C(F)(F)F)c1 [Alpelisib] (partner 2 µM)
Summary of the method: as §1

[4] = compound: N=C1NC(=O)/C(=C/c2ccc(O)cc2)S1 [Mirin] + Cc1nc(NC(=O)N2CCC[C@H]2C(N)=O)sc1-c1ccnc(C(C)(C)C(F)(F)F)c1 [Alpelisib] (partner 2 µM)
Summary of the method: as §1

Cell Line | relative viability ([1]; first compound 0.04 µM) | relative viability ([1]; first compound 0.1265 µM) | relative viability ([1]; first compound 0.4 µM) | relative viability ([1]; first compound 1.265 µM) | relative viability ([1]; first compound 4 µM) | relative viability ([2]; first compound 0.04 µM) | relative viability ([2]; first compound 0.1265 µM) | relative viability ([2]; first compound 0.4 µM) | relative viability ([2]; first compound 1.265 µM) | relative viability ([2]; first compound 4 µM) | relative viability ([3]; first compound 0.04 µM) | relative viability ([3]; first compound 0.1265 µM) | relative viability ([3]; first compound 0.4 µM) | relative viability ([3]; first compound 1.265 µM) | relative viability ([3]; first compound 4 µM) | relative viability ([4]; first compound 0.25 µM) | relative viability ([4]; first compound 0.7906 µM) | relative viability ([4]; first compound 2.5 µM) | relative viability ([4]; first compound 7.906 µM) | relative viability ([4]; first compound 25 µM)
HCC-44 | 0.784 | 1.03 | 0.83 | 0.411 | 0.248 | 0.789 | 0.746 | 0.815 | 0.743 | 0.713 | 0.816 | 0.896 | 0.659 | 0.456 | 0.344 | 0.852 | 0.879 | 0.806 | 0.762 | 0.705
HCC-78 | 0.429 | 0.357 | 0.333 | 0.393 | 0.399 | 0.188 | 0.348 | 0.333 | 0.4 | 0.279 | 0.494 | 0.336 | 0.429 | 0.487 | 0.455 | 0.389 | 0.393 | 0.366 | 0.291 | 0.298
HCC-366 | 0.738 | 0.537 | 0.575 | 0.0457 | 0.0363 | 0.563 | 0.385 | 0.335 |  | 0.395 | 0.462 | 0.429 | 0.21 | 0.0494 | 0.031 | 0.34 | 0.37 | 0.545 | 0.296 | 0.253
HCC-827 | 0.913 | 0.903 | 0.951 | 0.892 | 0.803 | 1 | 0.926 | 0.969 | 0.988 | 0.956 | 1.11 | 0.973 | 0.996 | 1.07 | 0.947 | 1.02 | 1.02 | 0.958 | 1.01 | 1.12
HOP-62 | 0.972 | 0.86 | 0.951 | 0.931 | 0.755 | 1.16 | 0.962 | 0.815 | 1.01 | 1.13 | 1.11 | 1.01 | 0.925 | 0.824 | 1.01 | 0.969 | 1.02 | 1.13 |  | 0.939
IA-LM | 1.01 | 0.831 | 0.859 | 0.699 | 0.758 | 0.805 | 0.752 | 0.668 | 0.766 | 0.748 | 1.17 | 0.929 | 0.871 | 0.825 | 0.687 | 0.668 | 0.768 | 0.797 | 0.434 | 0.812
LC-2-ad | 0.52 | 0.478 | 0.435 |  | 0.347 | 0.715 | 0.834 | 0.824 | 0.915 | 0.779 | 0.945 | 0.542 | 0.797 | 0.658 | 0.515 | 0.865 | 0.926 | 0.98 | 0.821 | 0.726
LCLC-97TM1 | 0.278 | 0.524 |  | 0.427 | 0.596 | 0.239 | 0.266 | 0.246 | 0.314 | 0.192 | 0.276 | 0.236 |  | 0.3 | 0.305 | 0.253 | 0.31 | 0.197 | 0.18 | 0.129
LCLC-103H | 1.08 | 1.09 | 0.962 | 1.01 | 0.967 | 0.901 | 1.05 | 0.952 | 0.932 | 1.15 | 1.2 | 0.935 | 0.961 | 1.11 | 1.03 | 0.917 | 1.02 | 0.908 | 1.05 | 1.1
LK-2 | 0.222 | 0.236 | 0.264 | 0.242 | 0.176 | 1.14 | 1.09 | 0.991 | 0.775 | 1.06 | 1.39 | 1.2 | 1.1 | 0.282 | 0.512 | 0.899 |  | 1.1 | 0.743 | 0.397
LOU-NH91 | 0.756 | 0.534 | 0.637 | 0.488 | 0.497 | 0.621 | 0.689 | 0.712 | 0.63 | 0.72 | 0.759 | 0.619 | 0.652 | 0.55 | 0.566 | 0.726 |  | 0.728 | 0.65 | 0.747
LU99A | 0.581 | 0.64 | 0.528 | 0.636 | 0.424 | 0.524 | 0.527 | 0.53 | 0.568 | 0.585 | 0.769 | 0.642 | 0.447 | 0.51 | 0.46 | 0.541 | 0.518 | 0.498 | 0.376 | 0.352
LXF-289 | 0.839 | 0.871 | 0.821 | 0.598 | 0.549 | 1.01 | 1.01 | 0.972 | 0.996 | 0.974 | 1.1 | 1.12 | 1 | 0.96 | 0.941 | 1.03 | 1.05 | 1.06 | 1.13 | 1.03
NCI-H23 | 0.812 | 0.82 |  | 0.439 | 0.305 | 0.807 | 0.652 | 0.706 | 0.599 | 0.781 | 0.874 | 0.831 |  | 0.604 | 0.495 | 0.655 |  | 0.723 | 0.642 | 0.442
NCI-H322M | 1.28 | 0.976 | 0.96 | 0.953 | 0.922 | 0.741 | 0.892 | 0.749 | 0.705 | 0.748 | 0.895 | 0.816 | 0.759 | 0.939 | 0.909 | 0.783 | 0.844 | 0.734 | 0.829 | 0.844
NCI-H1395 |  |  |  |  |  | 1.04 | 1.1 | 1.05 | 0.951 | 1.04 | 1.26 | 0.877 | 0.948 | 0.493 | 0.634 | 1.04 |  | 1.08 | 0.873 | 0.943
NCI-H1650 | 1.12 | 0.957 | 0.897 | 0.761 | 0.711 |  |  |  |  |  |  |  |  |  |  |  |  |  |  | 
NCI-H1793 |  |  |  |  |  | 0.618 | 0.553 | 0.557 |  | 0.637 | 0.639 | 0.671 | 0.662 | 0.652 | 0.599 | 0.724 | 0.747 | 0.775 | 0.764 | 0.482
